Earlier results in publication PMC11012124, “Synthesis of Novel Triazine-Based Chalcones and 8,9-dihydro-7H-pyrimido[4,5-b][1,4]diazepines as Potential Leads in the Search of Anticancer, Antibacterial and Antifungal Agents” (International Journal of Molecular Sciences, 2024).

Legend:
Parameters in all cases: method as in earlier work
Details in all cases: ref https://dtp.cancer.gov/dtpstandard/cancerscreeningdata/index.jsp, read-out: GI50 5-FU (NS 18893); cited from earlier work
CCRF-CEM = tested on: CCRF-CEM
HL-60(TB) = tested on: HL-60(TB)
K-562 = tested on: K-562
MOLT-4 = tested on: MOLT-4
RPMI-8226 = tested on: RPMI-8226
SR = tested on: SR
HOP-92 = tested on: HOP-92
NCI-H522 = tested on: NCI-H522
HCC-2998 = tested on: HCC-2998
HCT-116 = tested on: HCT-116
HCT-15 = tested on: HCT-15
HT29 = tested on: HT29
KM12 = tested on: KM12
SW-620 = tested on: SW-620
SF-539 = tested on: SF-539
SNB-75 = tested on: SNB-75
U251 = tested on: U251
LOX IMVI = tested on: LOX IMVI
IGROV1 = tested on: IGROV1
OVCAR-3 = tested on: OVCAR-3
CAKI-1 = tested on: CAKI-1
RXF 393 = tested on: RXF 393
SN12C = tested on: SN12C
UO-31 = tested on: UO-31
MCF7 = tested on: MCF7
MDA-MB-468 = tested on: MDA-MB-468

O=c1[nH]cc(F)c(=O)[nH]1 [5-FU, 5-fluorouracil]
GI50 (CCRF-CEM): 9.79 µM | GI50 (HL-60(TB)): 2.51 µM | GI50 (K-562): 3.58 µM | GI50 (MOLT-4): 0.35 µM | GI50 (RPMI-8226): 0.04 µM | GI50 (SR): 0.02 µM | GI50 (HOP-92): 78 µM | GI50 (NCI-H522): 7.28 µM | GI50 (HCC-2998): 0.05 µM | GI50 (HCT-116): 0.23 µM | GI50 (HCT-15): 0.11 µM | GI50 (HT29): 0.18 µM | GI50 (KM12): 0.21 µM | GI50 (SW-620): 0.93 µM | GI50 (SF-539): 0.06 µM | GI50 (SNB-75): 78.7 µM | GI50 (U251): 0.91 µM | GI50 (LOX IMVI): 0.25 µM | GI50 (IGROV1): 1.22 µM | GI50 (OVCAR-3): 0.02 µM | GI50 (CAKI-1): 0.07 µM | GI50 (RXF 393): 2.61 µM | GI50 (SN12C): 0.5 µM | GI50 (UO-31): 1.43 µM | GI50 (MCF7): 0.08 µM | GI50 (MDA-MB-468): 6.61 µM
